Reference: US6518339B1, “Aldehyde emission reduction for dibenzylidene sorbitol clarified plastics” (Milliken & Company, priority 2000, dated 2003)

Experiments:
[1] = Water solubility of the hydrazide/aldehyde reaction product; format: physicochemical; settings: tap water; precipitate from adipic dihydrazide and 4-methylbenzaldehyde
Method: The reaction product of hydrazide and aldehyde was then tested for water solubility. The test involved the following: To a 10-ounce sample vial was charged 30 ml of tap water and 0.14 g (0.8 mmol) of adipic dihydrazide. This mixture was shaken until a clear, colorless solution was obtained. 4-Methylbezaldehyde (0.14 g, 1.3 mmol) was added to the solution and the mixture was shaken for one minute, immediately precipitating a white solid. The mixture was then allowed to stand for an additional ten minutes, followed by collection of the solids by suction filtration to obtain […] of the (bis 4-methyl)adiponylbis(hydrazone).

[2] = Retort test, UV/VIS measurement of extracted aldehyde (Japanese Pharmacopoeia protocol); settings: hydrazide in formulation with 3,4-DMDBS, versus 3,4-DMDBS alone
Method: Testing was then conducted to determine the extent of aldehyde extraction from the compounded plastics. The testing procedures were as follows: Retort testing was performed per the Japanese Pharmacopoeia protocol (Japanese Pharmacopoeia, 13th ed. 1996: 76-82). Seven 50-mil plaques of each formulation were cut into 9 strips, rinsed with water, and placed into clean 1 quart Mason jars containing 200 ml of deionized water. The jars were covered with aluminum foil and autoclaved for 1 hour. The extraction water was then analyzed for UV absorbance between 220-240 nm and from 241-350 nm, after a suitable blank had been tested. Powderless latex gloves were worn during the entire procedure.

Compound	melting point	Water solubility, in words [1]	Reduction of peak absorbance between 220-240 nm [2]	Reduction of peak absorbance between 241-350 nm [2]
NNC(=O)CCCCC(=O)NN [Example 2, Adipic dihydrazide]	182.5 to 185.5 °C			
Cc1ccc(C=NNC(=O)CCCCC(=O)NN=Cc2ccc(C)cc2)cc1 [(bis 4-methyl)adiponylbis(hydrazone)]		substantially insoluble in water		
NNC(=O)CCCC(=O)NN [Example 4, Glutaric dihydrazide]	176.3 to 178.6 °C			
NNC(=O)CCCCCC(=O)NN [Example 5, Pimelic dihydrazide]	183.2 to 185 °C		70%	80%
NNC(=O)CCCCCCC(=O)NN [Example 6, Suberic dihydrazide]	186.9 to 189.1 °C			
